According to article PMC9154810, “Selective inhibition of carbonic anhydrase IX by sulphonylated 1,2,3-triazole incorporated benzenesulphonamides capable of inducing apoptosis” (Journal of Enzyme Inhibition and Medicinal Chemistry, 2022):

Experiments:
hCA I = hCA I (Homo sapiens, UniProt P00915); test: stopped-flow CO2 hydrase assay, hCA I; details: mean from three assays, stopped-flow technique, errors ± 5–10%
From the text: (§1) An Sx.18Mv-R Applied Photophysics (Oxford, UK) stopped-flow instrument was used to assay the catalytic activity of various CA isozymes for CO2 hydration reaction.[21]

hCA II = hCA II (Homo sapiens, UniProt P00918); test: stopped-flow CO2 hydrase assay, hCA II
From the text: as §1

hCA IV = hCA IV (Homo sapiens, UniProt P22748); test: stopped-flow CO2 hydrase assay, hCA IV
From the text: as §1

hCA IX = hCA IX (Homo sapiens, UniProt Q16790); test: stopped-flow CO2 hydrase assay, hCA IX; details: for Selectivity index I/IX: ratio KI hCA I / KI hCA IX; for Selectivity index II/IX: ratio KI hCA II / KI hCA IX
From the text: as §1

hCA I, sequence (P00915 whole entry): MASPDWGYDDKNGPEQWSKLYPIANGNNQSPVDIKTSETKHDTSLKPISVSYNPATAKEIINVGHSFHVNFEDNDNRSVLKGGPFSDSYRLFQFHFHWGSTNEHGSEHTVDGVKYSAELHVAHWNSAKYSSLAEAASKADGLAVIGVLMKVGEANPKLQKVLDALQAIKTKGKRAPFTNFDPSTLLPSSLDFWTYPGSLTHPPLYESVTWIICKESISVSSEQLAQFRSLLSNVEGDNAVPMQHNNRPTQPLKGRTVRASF
hCA IV, sequence (P22748 19-312): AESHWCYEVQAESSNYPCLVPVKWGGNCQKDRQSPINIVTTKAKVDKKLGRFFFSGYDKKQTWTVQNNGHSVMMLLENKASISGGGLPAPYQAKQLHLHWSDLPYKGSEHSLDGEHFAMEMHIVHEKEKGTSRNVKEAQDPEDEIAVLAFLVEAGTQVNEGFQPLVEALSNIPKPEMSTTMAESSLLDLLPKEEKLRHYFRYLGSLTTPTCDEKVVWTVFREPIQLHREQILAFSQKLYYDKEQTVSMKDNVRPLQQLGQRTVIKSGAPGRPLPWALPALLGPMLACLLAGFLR

Row | Structure (SMILES) | melting point [°C] | Ki (hCA I) [nM] | Ki (hCA II) [nM] | Ki (hCA IV) [nM] | Ki (hCA IX) [nM] | Selectivity index I/IX (hCA IX) | Selectivity index II/IX (hCA IX) | selectivity for hCA IX over hCA I (hCA IX) | selectivity for hCA IX over hCA II (hCA IX)
1 | NS(=O)(=O)c1ccc(-n2nnc(S(=O)(=O)c3ccccc3)c2-c2ccccc2)cc1 [Compound 9a, 4-(5-phenyl-4-(phenylsulphonyl)-1H-1,2,3-triazol-1-yl)benzenesulphonamide] | 214 to 216 | 97.9 | 9.6 | 149 | 21.5 | 4.55 | 0.45 |  | 
2 | Cc1ccc(-c2c(S(=O)(=O)c3ccccc3)nnn2-c2ccc(S(N)(=O)=O)cc2)cc1 [Compound 9b, 4-(4-(phenylsulphonyl)-5-(p-tolyl)-1H-1,2,3-triazol-1-yl)benzenesulphonamide] | 205 to 207 | 767 | 7.8 | 82.1 | 30.9 |  | 0.25 |  | 
3 | NS(=O)(=O)c1ccc(-n2nnc(S(=O)(=O)c3ccccc3)c2-c2ccc(F)cc2)cc1 [Compound 9c, 4-(5-(4-fluorophenyl)-4-(phenylsulphonyl)-1H-1,2,3-triazol-1-yl)benzenesulphonamide] | 207 to 209 | 264 | 6.6 | 86.1 | 66 | 4.00 | 0.10 |  | 
4 | NS(=O)(=O)c1ccc(-n2nnc(S(=O)(=O)c3ccccc3)c2-c2ccc(Cl)cc2)cc1 [Compound 9d, 4-(5-(4-chlorophenyl)-4-(phenylsulphonyl)-1H-1,2,3-triazol-1-yl)benzenesulphonamide] | 213 to 215 | 4630 | 56.7 | 526 | 25.1 | 184.42 | 2.26 | more than 100 fold | 
5 | NS(=O)(=O)c1ccc(-n2nnc(S(=O)(=O)c3ccccc3)c2-c2ccc(Br)cc2)cc1 [Compound 9e, 4-(5-(4-bromophenyl)-4-(phenylsulphonyl)-1H-1,2,3-triazol-1-yl)benzenesulphonamide] | 198 to 200 | 7840 | 220 | 801 | 30.1 | 260.40 | 7.32 | more than 100 fold | 
6 | NS(=O)(=O)c1ccc(-n2nnc(S(=O)(=O)c3ccccc3)c2-c2cccc(Br)c2)cc1 [Compound 9f, 4-(5-(3-bromophenyl)-4-(phenylsulphonyl)-1H-1,2,3-triazol-1-yl)benzenesulphonamide] | 282 to 284 | 434 | 9.2 | 94.8 | 27.1 | 16.00 | 0.34 |  | 
7 | COc1ccc(-c2c(S(=O)(=O)c3ccccc3)nnn2-c2ccc(S(N)(=O)=O)cc2)cc1 [Compound 9g, 4-(5-(4-methoxyphenyl)-4-(phenylsulphonyl)-1H-1,2,3-triazol-1-yl)benzenesulphonamide] | 235 to 237 | 7840 | 6.2 | 493 | 24.9 | 314.73 | 0.25 | more than 100 fold | 
8 | COc1ccc(-c2c(S(=O)(=O)c3ccccc3)nnn2-c2ccc(S(N)(=O)=O)cc2)cc1Br [Compound 9h, 4-(5-(3-bromo-4-methoxyphenyl)-4-(phenylsulphonyl)-1H-1,2,3-triazol-1-yl)benzenesulphonamide] | 210 to 212 | 9350 | 37.6 | 1210 | 28.8 | 324.62 | 1.30 | more than 100 fold | 
9 | NS(=O)(=O)c1ccc(-n2nnc(S(=O)(=O)c3ccccc3)c2-c2ccc([N+](=O)[O-])cc2)cc1 [Compound 9i, 4-(5-(4-nitrophenyl)-4-(phenylsulphonyl)-1H-1,2,3-triazol-1-yl)benzenesulphonamide] |  | 285 | 4.9 | 84.7 | 32.4 |  |  |  | 
10 | NS(=O)(=O)c1ccc(-n2nnc(S(=O)(=O)c3ccccc3)c2-c2cccc([N+](=O)[O-])c2)cc1 [Compound 9j, 4-(5-(3-nitrophenyl)-4-(phenylsulphonyl)-1H-1,2,3-triazol-1-yl)benzenesulphonamide] |  | 45.4 | 6.1 | 89.6 | 26.3 |  |  |  | 
11 | NS(=O)(=O)c1ccc(-n2nnc(S(=O)(=O)c3ccccc3)c2-c2ccc(-c3ccccc3)cc2)cc1 [Compound 9k, 4-(5-([1,1′-biphenyl]-4-yl)-4-(phenylsulphonyl)-1H-1,2,3-triazol-1-yl)benzenesulphonamide] | 214 to 216 | 3540 | 833 | 414 | 24.8 | 142.86 | 33.60 | more than 100 fold | more than 30 fold

Continued, values first:

Row | melting point [°C] | Ki (hCA I) [nM] | Ki (hCA II) [nM] | Ki (hCA IV) [nM] | Ki (hCA IX) [nM] | Selectivity index I/IX (hCA IX) | Selectivity index II/IX (hCA IX) | selectivity for hCA IX over hCA I (hCA IX) | selectivity for hCA IX over hCA II (hCA IX) | Structure (SMILES)
12 | 172 to 174 | 607 | 161 | 78.6 | 26 | 23.35 | 6.20 |  |  | NS(=O)(=O)c1cccc(-n2nnc(S(=O)(=O)c3ccccc3)c2-c2ccccc2)c1 [Compound 10a, 3-(5-phenyl-4-(phenylsulphonyl)-1H-1,2,3-triazol-1-yl)benzenesulphonamide]
13 | 186 to 188 | 566 | 21.8 | 347 | 21.2 | 26.71 | 1.03 |  |  | Cc1ccc(-c2c(S(=O)(=O)c3ccccc3)nnn2-c2cccc(S(N)(=O)=O)c2)cc1 [Compound 10b, 3-(4-(phenylsulphonyl)-5-(p-tolyl)-1H-1,2,3-triazol-1-yl)benzenesulphonamide]
14 |  | 454 | 119 | 78.9 | 22.8 |  |  |  |  | NS(=O)(=O)c1cccc(-n2nnc(S(=O)(=O)c3ccccc3)c2-c2ccc(F)cc2)c1 [Compound 10c, 3-(5-(4-fluorophenyl)-4-(phenylsulphonyl)-1H-1,2,3-triazol-1-yl)benzenesulphonamide]
15 | 96 to 98 | 636 | 138 | 80.1 | 25.1 | 25.33 | 5.50 |  |  | NS(=O)(=O)c1cccc(-n2nnc(S(=O)(=O)c3ccccc3)c2-c2ccc(Br)cc2)c1 [Compound 10e, 3-(5-(4-bromophenyl)-4-(phenylsulphonyl)-1H-1,2,3-triazol-1-yl)benzenesulphonamide]
16 | 97 to 99 | 689 | 370 | 84.3 | 28.6 | 24.10 | 12.93 |  |  | NS(=O)(=O)c1cccc(-n2nnc(S(=O)(=O)c3ccccc3)c2-c2cccc(Br)c2)c1 [Compound 10f, 3-(5-(3-bromophenyl)-4-(phenylsulphonyl)-1H-1,2,3-triazol-1-yl)benzenesulphonamide]
17 |  | 509 | 44.3 | 84 | 24.1 |  |  |  |  | COc1ccc(-c2c(S(=O)(=O)c3ccccc3)nnn2-c2cccc(S(N)(=O)=O)c2)cc1 [Compound 10g, 3-(5-(4-methoxyphenyl)-4-(phenylsulphonyl)-1H-1,2,3-triazol-1-yl)benzenesulphonamide]
18 |  | 868 | 35.2 | 64.4 | 27 |  |  |  |  | NS(=O)(=O)c1cccc(-n2nnc(S(=O)(=O)c3ccccc3)c2-c2ccc([N+](=O)[O-])cc2)c1 [Compound 10i, 3-(5-(4-nitrophenyl)-4-(phenylsulphonyl)-1H-1,2,3-triazol-1-yl)benzenesulphonamide]
19 |  | 6900 | 884 | 1680 | 26.7 |  |  |  |  | NS(=O)(=O)c1cccc(-n2nnc(S(=O)(=O)c3ccccc3)c2-c2cccc([N+](=O)[O-])c2)c1 [Compound 10j, 3-(5-(3-nitrophenyl)-4-(phenylsulphonyl)-1H-1,2,3-triazol-1-yl)benzenesulphonamide]
20 | 74 to 76 | 2060 | 211 | 849 | 22.6 | 91.02 | 9.33 |  |  | NS(=O)(=O)c1cccc(-n2nnc(S(=O)(=O)c3ccccc3)c2-c2ccc(-c3ccccc3)cc2)c1 [Compound 10k, 3-(5-([1,1′-biphenyl]-4-yl)-4-(phenylsulphonyl)-1H-1,2,3-triazol-1-yl)benzenesulphonamide]
